Patent US10021881B2, “Vaporized administration of pesticides” (priority 2016, dated 2018)

Assay: Thermo Gravity Analysis (TGA) degradation temperature
Format: physicochemical
Conditions: for temperature at which degradation began (TGA): ramp 10° C. per minute to 300° C.
Procedure: This example relates to experiments performed to determine the degradation temperatures of pyrimethanil technical compounds and fungicide samples. In the present example, pyrimethanil compounds from China (compound 1) and Europe (compound 2) were analyzed by Thermo Gravity Analysis (TGA). The pyrimethanil samples were run in both air and nitrogen atmospheres on the Q5000 TGA instrument (TA Instruments) equipped in open platinum pans, and using standard TGA test methods as follows: select gas 1 and 2, data storage on, ramp at 10° C. per minute to 300° C., data storage off, and end method. An isothermal method was also performed according to standard methods.

Cc1cc(C)nc(Nc2ccccc2)n1 [compound 1]
temperature at which degradation began (TGA) (in air): about 120.3 °C
temperature at which degradation was complete (TGA) (in both air and nitrogen): about 200 °C
temperature at which degradation began (TGA) (in nitrogen): about 120.6 °C
